Reference: patent US20080279819A1, “Combinations Therapy for Treatment of Demyelinating Conditions” (Adamas Pharmaceuticals, Inc., priority 2005, published 2008)

Tests used:
[1] = Release profile of memantine and atorvastatin combination (cumulative fraction released); format: physicochemical; details: released from formulation matrix, USP II Paddle, water
Description: The cumulative fraction is the amount of drug substance released from the formulation matrix to the serum or gut environment (e.g., U.S. Pat. No. 4,839,177) or as measured with a USP II Paddle system using water as the dissolution medium.

[2] = five doses at about 0.25 to about 1 mg/kg intravenous, 14 day interval; cited from earlier work

cum. fraction ([1]; Time 1) | cum. fraction ([1]; Time 2) | cum. fraction ([1]; Time 4) | cum. fraction ([1]; Time 8) | cum. fraction ([1]; Time 12) | cum. fraction ([1]; Time 16) | cum. fraction ([1]; Time 20) | cum. fraction ([1]; Time 24) | Compound | Peak serum concentrations [2] [µg/mL]
0.15 | 0.30 | 0.45 | 0.60 | 0.75 | 0.90 | 0.98 | 0.99 | CC(C)c1c(C(=O)Nc2ccccc2)c(-c2ccccc2)c(-c2ccc(F)cc2)n1CC[C@@H](O)C[C@@H](O)CC(=O)O [ATORVASTATIN, atorvastatin] | 
 |  |  |  |  |  |  |  | daclizumab: multiple sclerosis agent daclizumab (ZENAPAX), given intravenously | 21 to 32
